Experiment: relative stability and turnover of the crystalline forms
Type: physicochemical
Conditions: for thermodynamic stability of the crystalline form: solid form, Form II statement applies to the 5-70° C. range
Source text: Alternatively, Form I can also be produced by solvent/anti solvent crystallizations where the solvent is (but limited not) DMSO or acetone and the antisolvent is (but not limited to) water, hexanes or heptanes. Form I can also be produced by slow evaporation of clear solutions of crude Example 1 in volatile solvents where the volatile solvent is (but not limited to) dichloromethane, acetone, or acetonitrile. Form I was characterized using PXRD, DSC, TGA and SCXRD.
Form II can be produced by recrystallization of Form I in a variety of organic solvents or mixtures thereof where the solvent(s) is (are) (but not limited to) ethyl acetate, isopropanol, acetone, dichloromethane, acetonitrile, tetrahydrofuran, water, ethanol, 2-methyl tetrahydrofuran, toluene, methanol, dimethyl formamide or cyclopentyl methyl ether. Form II was characterized using PXRD, DSC and TGA.
Type C can be produced by recrystallization of either Form I, Form II or Form III in solvent/antisolvent systems where the solvent is (but not limited to) acetone or dichloromethane and the antisolvent is (but not limited to) n-hexane or n-heptane.
Form III was produced by recrystallization of Type C in the solid state at 150° C. and under a N2 flow. Form III can also be formed in some instances from solution in acetone/n-heptane crystallizations. […] Form III was characterized using PXRD, DSC, TGA and SCXRD.

Structure (SMILES)	thermodynamic stability of the crystalline form	lifetime in solution before turnover into a more thermodynamically stable phase (in solution)
COC(=O)NC[C@H]1CN(c2cc(F)c(N3CCS(=O)(=O)CC3)c(F)c2)C(=O)O1 [Form I, methyl({(5S)-3-[4-(1,1-dioxo-1λ^6-thiomorpholin-4-yl)-3,5-difluorophenyl]-2-oxo-1,3-oxazolidin-5-yl}methyl)carbamate]	kinetic phase and will recrystallize into Form II with time	
COC(=O)NC[C@H]1CN(c2cc(F)c(N3CCS(=O)(=O)CC3)c(F)c2)C(=O)O1 [Form II, methyl ({(5S)-3-[4-(1,1-dioxo-1λ^6-thiomorpholin-4-yl)-3,5-difluorophenyl]-2-oxo-1,3-oxazolidin-5-yl}methyl)carbamate]	most thermodynamically stable form in the 5-70 °C range	
COC(=O)NC[C@H]1CN(c2cc(F)c(N3CCS(=O)(=O)CC3)c(F)c2)C(=O)O1 [Form III, methyl ({(5S)-3-[4-(1,1-dioxo-1λ^6-thiomorpholin-4-yl)-3,5-difluorophenyl]-2-oxo-1,3-oxazolidin-5-yl}methyl)carbamate]	Quick turnovers to more thermodynamically stable phases Form I or Form II are readily observed within minutes to hours	
COC(=O)NC[C@H]1CN(c2cc(F)c(N3CCS(=O)(=O)CC3)c(F)c2)C(=O)O1 [Type C, methyl ({(5S)-3-[4-(1,1-dioxo-1λ^6-thiomorpholin-4-yl)-3,5-difluorophenyl]-2-oxo-1,3-oxazolidin-5-yl}methyl)carbamate]	highly metastable	a few hours
